Several values for one entry are separate records, joined by “and”; a condition that tells them apart may be missing. Identical values can stand only once.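 Five compound concentrations were applied to cells in 96-well plates for 48 hours; endpoints were derived by simple linear interpolation of the resulting dose-response curve. Here, GI50 denotes the concentration required for 50% inhibition of growth. TGI is the concentration that stops growth completely.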
Legend:
Assay in all cases: growth of human tumour cells (NCI), 48 h
786-0 renal = tested on: 786-0 renal
A549 NSCLC = tested on: A549 NSCLC
CAKI-1 renal = tested on: CAKI-1 renal
EKVX NSCLC = tested on: EKVX NSCLC
HL-60(TB) leukemia = tested on: HL-60(TB) leukemia
HT29 colon = tested on: HT29 colon
IGROV1 ovarian = tested on: IGROV1 ovarian
MCF7 breast = tested on: MCF7 breast
MDA-MB-435 = tested on: MDA-MB-435
MDA-N = tested on: MDA-N
OVCAR-3 ovarian = tested on: OVCAR-3 ovarian
OVCAR-8 ovarian = tested on: OVCAR-8 ovarian
RXF 393 renal = tested on: RXF 393 renal
SF-295 CNS = tested on: SF-295 CNS
SK-MEL-2 melanoma = tested on: SK-MEL-2 melanoma
U251 CNS = tested on: U251 CNS
UO-31 renal = tested on: UO-31 renal

| SMILES | TGI (786-0 renal) [µM] | TGI (A549 NSCLC) [µM] | TGI (CAKI-1 renal) [µM] | TGI (EKVX NSCLC) [µM] | TGI (HL-60(TB) leukemia) | TGI (HT29 colon) | TGI (IGROV1 ovarian) [µM] | TGI (MCF7 breast) | TGI (MDA-MB-435) | TGI (MDA-N) | TGI (OVCAR-3 ovarian) | TGI (OVCAR-8 ovarian) [µM] | TGI (RXF 393 renal) | TGI (SF-295 CNS) | TGI (SK-MEL-2 melanoma) [µM] | TGI (U251 CNS) [µM] | TGI (UO-31 renal) | GI50 (CAKI-1 renal) | GI50 (OVCAR-3 ovarian) | GI50 (SF-295 CNS) |
| --- | --- | --- | --- | --- | --- | --- | --- | --- | --- | --- | --- | --- | --- | --- | --- | --- | --- | --- | --- | --- |
| COc1ccc(Nc2nnc(-c3nsc4ccccc34)s2)cc1 | 9.77 | > 100 | > 100 | > 100 | > 100 µM | > 100 µM | > 100 | > 100 µM | > 100 µM | > 100 µM | > 100 µM | > 100 | > 78.9 µM | > 100 µM | > 100 | > 100 | 35 µM | – | – | – |
| O=C1/C(=C\c2ccc(O)cc2)CCC/C1=C/c1ccc(Cl)c(Cl)c1 | 6.05 | 15 | 16.7 | 20 | 4.94 µM | 3.54 µM | 1.17 | 14.9 µM | 9.51 µM | 8.01 µM | 9.73 µM | – | 5.8 µM | 10.1 µM | 36.9 | 16 | 5.6 µM | – | – | – |
| CCc1c2c([nH]c(=S)c1C#N)CCC2 | > 100 | > 100 | > 100 | 75.6 | > 100 µM | > 100 µM | > 100 | > 100 µM | > 100 µM | > 100 µM | > 100 µM | > 100 | > 100 µM | > 100 µM | > 100 | > 100 | > 100 µM | – | – | – |
| CCOC(CN(C)C(=O)Nc1cccc2ccccc12)OCC | > 10 | > 10 | > 10 | > 10 | > 10 µM | > 10 µM | > 10 | > 10 µM | > 10 µM | > 10 µM | > 10 µM | > 10 | > 10 µM | > 10 µM | > 10 | > 10 | > 10 µM | – | – | – |
| C=CCN1C(=O)/C(=C/c2ccco2)N=C1SC/C=C/C | > 100 | > 100 | > 100 | > 100 | 76 µM | > 100 µM | > 100 | 65.1 µM | > 100 µM | 77.5 µM | > 100 µM | > 100 | 96.1 µM | > 100 µM | 86.4 | > 100 | > 100 µM | – | – | – |
| CNC1=C(C)C(=O)C(=O)C([C@H](C)CCC=C(C)C)=C1O | > 95.3 | > 100 | 56.7 | > 100 | 6.88 µM | > 100 µM | > 76.1 | > 100 µM | > 100 µM | > 100 µM | > 100 µM | > 60.9 | > 100 µM | > 75.7 µM | 81.9 | > 100 | 49.7 µM | – | – | – |
| CC(C)Cn1cnc2c(NCC(C)O)nc3ccccc3c21 (stereo not given) | > 100 | > 100 | > 100 | > 100 | > 100 µM | > 100 µM | > 100 | > 100 µM | > 100 µM | > 100 µM | > 100 µM | > 100 | > 100 µM | > 100 µM | > 100 | > 100 | > 100 µM | – | – | – |
| Cc1csc2c(=O)n(C3OC(CO)C(O)C3O)c(=O)[nH]c12 (stereo not given) | > 100 | > 100 | > 100 | > 100 | > 100 µM | > 100 µM | > 100 | > 100 µM | > 100 µM | > 100 µM | > 100 µM | > 100 | > 100 µM | > 100 µM | – | > 100 | > 100 µM | – | – | – |
| COc1ccc(-c2c(C#N)c(N)n(C3OCC(OC(C)=O)C(OC(C)=O)C3OC(C)=O)c(=S)c2C#N)cc1 (stereo not given) | > 100 | > 100 | > 100 | > 100 | 36.5 µM and 35.9 µM | > 100 µM | > 100 | > 100 µM | 98.6 µM and > 100 µM | > 100 µM | > 100 µM | > 100 | > 100 µM and 98.2 µM | > 100 µM | > 100 | > 100 | 82.6 µM and > 100 µM | – | – | – |
| CNc1ncnc2c1ncn2C1C=CC(COS(N)(=O)=O)C1 (stereo not given) | > 100 | > 100 | > 100 | > 100 | > 100 µM | > 100 µM | > 100 | > 100 µM | > 100 µM | > 100 µM | > 100 µM | > 100 | > 100 µM | > 100 µM | > 100 | > 100 | > 100 µM | – | – | – |
| Cc1cccc(C)c1NC(=O)C(C#N)C1=C(Cl)C(=O)c2ccccc2C1=O (stereo not given) | 45.7 | 41.6 | 38.1 | 38.5 | 38.2 µM | 39.8 µM | 31.8 | 46.2 µM | 34.3 µM | 28.6 µM | 26.9 µM | 48.5 | > 47.8 µM | 32.5 µM | 29.2 | 42.7 | 26.6 µM | – | – | – |
| Cn1c2ccccc2c2c(-c3ccccc3)cc3c(c21)C(=O)C=CC3=O | 2.99 | > 10 | 4.07 | > 8.39 | 1.1 µM | > 9 µM | 5.5 | 4.35 µM | 4.32 µM | > 7.18 µM | 4.03 µM | 5.12 | 3.83 µM | > 10 µM | > 7.25 | > 9.67 | 3.37 µM | – | – | – |
| CC[C@]1(Cc2ccc(OC)c(OC)c2)C=[N+]([O-])O[C@H](OC2CCCC2(c2ccccc2)c2ccccc2)[C@@H]1OC(=O)c1ccccc1 (stereo not given in full) | > 100 | > 100 | > 100 | > 23.8 | > 100 µM | > 71.1 µM | > 100 | > 24.9 µM | > 46.3 µM | > 100 µM | 13.7 µM | > 100 | > 25.9 µM | > 65.4 µM | 37.5 | > 100 | > 100 µM | – | – | – |
| CCCCCCCCCCCCCCCCCCNc1ccn(C2OC(COP(=O)(O)OCC3OC(n4cc(F)c(=O)[nH]c4=O)CC3O)C(O)C2O)c(=O)n1 (stereo not given) | > 100 | > 100 | > 100 | > 100 | 22.1 µM | > 84.3 µM | 35.8 | > 48.6 µM | > 100 µM | > 100 µM | > 100 µM | > 100 | 35.6 µM | > 100 µM | > 100 | > 100 | > 100 µM | – | – | – |
| CC1C2(C)OC(=N)C(C#N)(C(c3ccccc3)O2)C1(C#N)C#N (stereo not given) | 51.1 | > 100 | 26.6 | 56.6 | 40.1 µM | 45.8 µM | > 100 | 49.3 µM | > 100 µM | 44.4 µM | 29.1 µM | > 100 | 87.5 µM | > 100 µM | 42.7 | 46.6 | > 100 µM | – | – | – |
| C=CCNC1=C2C[C@@H](C)C[C@@H](OC)[C@H](OC(=O)CCN)[C@H](C)/C=C(\C)[C@@H](OC(N)=O)[C@H](OC)/C=C\C=C(/C)C(=O)NC(=CC1=O)C2=O | 17 | 18.5 | 25.6 | 36.4 | 17.9 µM | 18.7 µM | 19.6 | 7.71 µM | 13.4 µM | 11.2 µM | 6.56 µM | 18.4 | 15.1 µM | 14.1 µM | 7.12 | 18.8 | 24.2 µM | – | – | – |
| N#Cc1c(-c2ccccc2)cc(-c2ccccc2)n(C2OC(CO)C(O)C(O)C2O)c1=S (stereo not given) | > 100 | > 100 | > 100 | > 100 | > 100 µM | 56 µM and > 100 µM | > 100 | 78 µM and > 100 µM | 44 µM and 67.9 µM | 60.5 µM and > 100 µM | 34.3 µM and > 100 µM | > 100 | > 100 µM | 44.4 µM and > 100 µM | – | 35.9 | > 100 µM | 38.1 µM and > 100 µM | 18 µM and 73 µM | 19.5 µM and 41.1 µM |
| O=C(ON=C1c2ccccc2C(Br)C(Br)c2ccccc21)c1cc([N+](=O)[O-])cc([N+](=O)[O-])c1 (stereo not given) | 28.7 | 75.7 | 47.9 | 59.8 | 0.422 µM | 37.7 µM | 26.6 | 48 µM | 35.3 µM | 48.8 µM | 35.5 µM | 36.5 | 36.6 µM | > 88.9 µM | > 71 | 30.2 | – | – | – | – |

From PubChem BioAssay (NCI)
